Measurements reported in patent publication US12618070B2, “Increasing Atoh1 life to drive sensorineural hair cell differentiation” (Massachusetts Eye and Ear Infirmary, priority 2014, dated 2026).
Entries after “also recorded” stand apart in the source; their conditions may differ. Peptide text beside a SMILES is read from it. * marks the point of attachment. Cbz = O=C(OCc1ccccc1)*

B1: Atoh1: wild-type Atoh1 protein, FLAG- or FLAG-HA-tagged, expressed in HEK/293T cells (protein)
chain: MSRLLHAEEWAEVKELGDHHRQPQPHHLPQPPPPPQPPATLQAREHPVYPPELSLLDSTDPRAWLAPTLQGICTARAAQYLLHSPELGASEAAAPRDEVDGRGELVRRSSGGASSSKSPGPVKVREQLCKLKGGVVVDELGCSRQRAPSSKQVNGVQKQRRLAANARERRRMHGLNHAFDQLRNVIPSFNNDKKLSKYETLQMAQIYINALSELLQTPSGGEQPPPPPASCKSDHHHLRTAASYEGGAGNATAAGAQQASGGSQRPTPPGSCRTRFSAPASAGGYSVQLDALHFSTFEDSALTAMMAQKNLSPSLPGSILQPVQEENSKTSPRSHRSDGEFSPHSHYSDSDEAS
modifications: left off: large carriers
notes: wild-type Atoh1 protein, FLAG- or FLAG-HA-tagged, expressed in HEK/293T cells

Assays:
Assay type in all cases: cell-based
Atoh1 [1] = assay: Polyubiquitylation of Atoh1: anti-FLAG immunoprecipitation, ubiquitin immunoblot; settings: MG132 10 uM, 6 hours
Experimental: (§1) FIGS. 2A-E. Atoh1 is degraded by the ubiquitin-proteasome pathway. […] HEK cells were transfected with FLAG-Atoh1 plasmid (1 ug/ml) for 24 hours, and incubated with either DMSO or MG132 (10 uM) for 3 hours and immunoprecipitated using FLAG (Atoh1) or beta-actin (loading control) antibodies. (B) FLAG-HA-Atoh1 293T cells were treated with cycloheximide (100 ug/ml) and MG132 (10 uM) at the indicated times and immunoprecipitated with FLAG (Atoh1) or beta-actin (loading control) antibodies. Time of treatment is indicated. (C) Half-lives based on densitometry from 3 experiments are shown. The ratio of Atoh1 to β-actin was plotted after normalization. Error bars indicate SEM. (D) & (E). Atoh1 is polyubiquitylated and degraded by the ubiquitin-proteasome pathway. FLAG-HA-Atoh1 293T cells were treated with either DMSO or MG132 (10 uM) for 6 hours. Lysates were immunoprecipitated with anti-FLAG antibody and subjected to immunoblotting with a ubiquitin antibody. FLAG was used to assess immunoprecipitation. […]
We then assessed polyubiquitylation of Atoh1 in the presence of a proteasome inhibitor which would prevent degradation of the ubiquitinated protein. […] The cell lysates were immunoprecipitated with anti-FLAG antibody, and the pattern of ubiquitylation was assessed with an anti-ubiquitin antibody.

Atoh1 [2] = assay: Atoh1 level in P1 organ of Corti explants treated with proteasome inhibitor; settings: P1 mouse organ of Corti, MG132 10 uM, 3 hours, vs DMSO
Experimental: FIG. 10. Inhibition of proteasome activity stabilizes Atoh1 in the cochlea. The organ of Corti from a P1 mouse was treated with proteasome inhibitor, MG132 (10 uM) for 3 hours. Atoh1 levels were higher in the MG132-treated organ of Corti. DMSO served as control; β-actin is a loading control.
Cochlear tissues were dissected from 1-day postnatal CD-1 mice (Charles River Laboratories). Spiral ganglion, Reissner's membrane, and the hook region of the organ of Corti were removed to obtain a flat cochlear surface preparation (Parker et al., 2010). Explants were plated onto 4-well plates (Greiner Bio-One) coated with Matrigel (BD Biosciences) diluted 1:10 in DMEM supplemented with 10% fetal bovine serum overnight.
To test whether proteasomal activity regulated Atoh1 in the cochlea we treated P1 organ of Corti explants with proteasome inhibitor, MG132 (10 uM).

Atoh1 [3] = assay: Atoh1 level after proteasome inhibition in HEK cells transfected with FLAG-Atoh1; settings: MG132 10 uM, 3 hours, vs DMSO
Experimental: FIGS. 2A-E. Atoh1 is degraded by the ubiquitin-proteasome pathway. […] HEK cells were transfected with FLAG-Atoh1 plasmid (1 ug/ml) for 24 hours, and incubated with either DMSO or MG132 (10 uM) for 3 hours and immunoprecipitated using FLAG (Atoh1) or beta-actin (loading control) antibodies. (B) FLAG-HA-Atoh1 293T cells were treated with cycloheximide (100 ug/ml) and MG132 (10 uM) at the indicated times and immunoprecipitated with FLAG (Atoh1) or beta-actin (loading control) antibodies. Time of treatment is indicated. (C) Half-lives based on densitometry from 3 experiments are shown. The ratio of Atoh1 to β-actin was plotted after normalization. Error bars indicate SEM. (D) & (E). Atoh1 is polyubiquitylated and degraded by the ubiquitin-proteasome pathway. FLAG-HA-Atoh1 293T cells were treated with either DMSO or MG132 (10 uM) for 6 hours. Lysates were immunoprecipitated with anti-FLAG antibody and subjected to immunoblotting with a ubiquitin antibody. FLAG was used to assess immunoprecipitation.
To determine if the ubiquitin-proteasome pathway was involved in Atoh1 degradation, HEK cells were transfected with FLAG-Atoh1 (1 μg/ml) using Lipofectamine 2000 (Invitrogen) for […] and either DMSO or MG132 (10 μM) for […]. Transfected cells were lysed in Pierce IP Lysis Buffer (Thermo) containing 1× complete protease inhibitors and 1×PhosSTOP phosphatase inhibitors (Roche). […]

Atoh1 [4] = assay: Cycloheximide chase of Atoh1 with proteasome inhibitor or Huwe1 shRNA in FLAG-HA-Atoh1 293T cells; settings: cycloheximide 100 ug/ml plus MG132 10 uM
Experimental: as §1, with “(E).” for “(E). Atoh1 is polyubiquitylated and degraded by the ubiquitin-proteasome pathway. FLAG-HA-Atoh1 293T cells were treated with either DMSO or MG132 (10 uM) for 6 hours. Lysates were immunoprecipitated with anti-FLAG antibody and subjected to immunoblotting with a ubiquitin antibody. FLAG was used to assess immunoprecipitation.”
FIGS. 9A-D. Huwe1 plasmid increased and Huwe1 siRNA inhibited degradation of Atoh1. […] Quantification of Atoh1, Huwe1 and a loading control (HSC70) were performed by Western blotting and densitometry. […] Atoh1 (FLAG) and Huwe1 were analyzed by Western blotting and densitometry normalized to loading controls in three experiments. […]
HEK cells were transfected with either FLAG-Atoh1 (wild-type), or indicated mutant FLAG-Atoh1 plasmids (1 μg/ml) using Lipofectamine 2000 (3 μl per 1 μg of cDNA, Invitrogen). […] Protein bands were quantified by densitometry. The half-lives of indicated proteins were calculated using GraphPad Prism 6 software and a one-phase exponential-decay model.

FLAG-HA-Atoh1 293T cells = assay: Cycloheximide chase, half-life of Atoh1 by Western blotting and densitometry
Experimental: FIGS. 1A-B. Atoh1 is a short-lived protein. (A) FLAG-HA-Atoh1 293T cells were treated with cycloheximide (100 ug/ml) and harvested at the indicated times. Lysates were processed for Western blotting with FLAG antibody (Atoh1) or β-actin antibody (loading control). Labels indicate the time of chase. (B) Protein half-lives based on densitometry. The ratio of Atoh1 to β-actin was plotted after normalizing to the initial ratio set to 100. Error bars indicate SEM.
HEK cells were transfected with either FLAG-Atoh1 (wild-type), or indicated mutant FLAG-Atoh1 plasmids (1 μg/ml) using Lipofectamine 2000 (3 μl per 1 μg of cDNA, Invitrogen). Forty-eight hours after transfection, 100 μg/ml cycloheximide (Sigma) was added to block protein synthesis. Cells were harvested at 0, 30, 60, 120, and 240 minutes. Equal amounts of protein from each treatment were taken for Western blotting. Protein bands were quantified by densitometry. The half-lives of indicated proteins were calculated using GraphPad Prism 6 software and a one-phase exponential-decay model.
To determine the half-life of Atoh1, we used cycloheximide to prevent new protein synthesis and followed the time course of disappearance of previously synthesized Atoh1 by Western blotting during a chase period. We transfected 293T cells with FLAG-HA-Atoh1 and treated with cycloheximide at 48 hours after transfection.

Row | Molecule | level of Atoh1 protein (Atoh1 [1]; FLAG-HA-Atoh1 293T cells, reprobed blot and input protein) | density of high molecular weight poly-ubiquitin forms of Atoh1 (Atoh1 [1]; FLAG-HA-Atoh1 cells, vs DMSO) | Atoh1 level in organ of Corti (Atoh1 [2]) | level of Atoh1 (Atoh1 [3]) | half-life of Atoh1 (Atoh1 [4]) | turnover rate of Atoh1 (FLAG-HA-Atoh1 293T cells)
1 | CC(C)C[C@@H](C=O)NC(=O)[C@H](CC(C)C)NC(=O)[C@H](CC(C)C)NC(=O)OCc1ccccc1 [MG132] (Cbz-Leu-Leu-Leu-aldehyde) | increased the level of protein | increased the density | increased; also recorded: higher | significantly increased; also recorded: stabilized Atoh1 expression | extended the half-life | –
2 | B1 | – | – | – | – | – | less than 1 hour
